In patent publication US6107104A, “Modulators of anchoring protein function” (ICOS Corporation, priority 1996, dated 2000):
Ends that are not written are not given here.

Columns and labels:
[1] = in vivo; cited from earlier work
[2] = following liver transplantation; cited from earlier work
[3] = molecular target: T1, CaN (Rattus norvegicus, UniProt P63329); test: CaN phosphatase activity toward 32P RII peptide substrate; format: biochemical
T1 construct: made in house; host or cells: Sf9 cells (baculovirus)
Procedure: (§1) To determine whether AKAP 79 peptide binding inhibits CaN activity, CaN phosphatase activity was assayed in the presence of recombinant AKAP 79. Briefly, recombinant AKAP 79 was expressed in E. coli as described in Carr et al., J. Biol. Chem., 267:16816-16823 (1992), incorporated herein by reference. CaN and the constitutively active truncation mutant CaN420 (a truncated, Ca^2+ /calmodulin independent constitutively active form of CaN (Perrino et al., J. Biol. Chem., in press)) were expressed in Sf9 cells and purified on calmodulin-Sepharose as described in Perrino et al., J. Biol Chem., 267:15965-15969 (1992), incorporated herein by reference. Phosphatase activity toward ^32 P RII peptide substrate was measured as described in Perrino et al., supra. CaN (30 nM), calmodulin (100 nM) and ^32 P RII peptide (22 μM) were incubated with AKAP 79 protein and AKAP 79 peptide (SEQ ID NO:1-amino acids 81-102) over the range of concentrations indicated in FIG. 1B. Calmodulin was omitted from CaN420 assays. ^32 P released from the substrate was measured in triplicate samples in three separate experiments by scintillation counting. The inhibition constant (Ki) of recombinant AKAP 79 for CaN was determined by linear regression analysis of data. Ki values for AKAP 79 peptide were estimated by determining the IC50 using a fixed substrate concentration at Km (42 μM).

[4] = tested on: protein phosphatases 1; test: Protein phosphatase 1 activity; format: biochemical; settings: peptide concentrations as high as 0.4 mM
[5] = tested on: protein phosphatases 2A; test: Protein phosphatase 2A activity; format: biochemical; settings: peptide concentrations as high as 0.4 mM
[6] = molecular target: T2, CaN420 (Rattus norvegicus, UniProt P63329); test: CaN420 phosphatase activity toward 32P RII peptide substrate; format: biochemical; settings: calmodulin omitted
T2 construct: a truncated, Ca^2+ /calmodulin independent constitutively active form of CaN; made in house; host or cells: Sf9 cells (baculovirus)
Procedure: as §1

[7] = tested on: ^32 P-inhibitor 1; test: Calcineurin phosphatase assay of reconstituted CaN holo-enzyme; format: biochemical; settings: in association with CaN B, ten minute incubation at room temperature, 33 nM complex
Procedure: The activity of CaN is measured by the Ca^2+ --and calmodulin-dependentrelease of ^32 Pi from ^32 P-inhibitor 1, using the method of Nairn, et al. [Neuroprotocols 6:108-111 (1995)]. Identified chemicals are pre-incubated with 4 or 30 nM CaN before initiation of the reaction with ^32 P-inhibitor 1 (Chemicon). Inhibitor 1 (50 μg) was phosphorylated using the catalytic subunit of PKA and purified according to the procedure described in Nairn, et al., [supra]. Phosphatase activity in the absence of chemicals is defined as 100%.
In order to determine if the mutated CaN A protein retained phosphatase activity, a CaN holo-enzyme was reconstituted. One micromole of purified wild type or mutant CaN A was incubated with equal molar amount of purified CaN B (Chemicon), and calmodulin (Sigma) in 50 mM Hepes, pH 7.5, 1 mM MnCl2, 0.5 mM EDTA, 1 mM DDT, and 2 mg/ml BSA, for 24 hours at 4° C., after which 33 nM of the reconstituted complex was used in a calcineurin phosphatase assay using ^32 P-inhibitor 1 as substrate as described in Example 14.

N=C(N)NCCCCCCC(=O)NC(O)C(=O)NCCCCNCCCN (centres unmarked) [15-Deoxyspergualin]
effective in refractory kidney rejection [1]: 70-90%

C=CC[C@@H]1/C=C(\C)C[C@H](C)C[C@H](OC)[C@H]2O[C@@](O)(C(=O)C(=O)N3CCCC[C@H]3C(=O)O[C@H](/C(C)=C/[C@@H]3CC[C@@H](O)[C@H](OC)C3)[C@H](C)[C@@H](O)CC1=O)[C@H](C)C[C@@H]2OC [FK506, reference compound]
patients with moderate to severe neurotoxicity [2]: 10-20%
effect on the potency of inhibition of CaN by AKAP 79 ([3]; FK506 2 μM): did not affect

RRKRSQSSKEEKP [AKAP 79 peptide]
effect on activity of protein phosphatase 1 [4]: did not significantly affect
effect on activity of protein phosphatase 2A [5]: did not significantly affect
inhibition of CaN420 phosphatase activity [6]: inhibited
inhibition of full-length CaN phosphatase activity ([3]; Ca2+/calmodulin dependent CaN 30 nM, 32P RII peptide substrate): inhibited

biotinylated CaN A: endogenously biotinylated rat brain calcineurin A, wild type
dephosphorylation of substrate [7]: 33%
